Data as given in ChEMBL document CHEMBL5335868, “Exploring Scaffold Hopping for Novel 2-(Quinolin-4-yloxy)acetamides with Enhanced Antimycobacterial Activity” (ACS Med Chem Lett, 2024).
Converted amounts (≈) assume the structure as drawn.

Tests used:
[1] = system: Mycobacterium tuberculosis; assay: Antibacterial activity against Mycobacterium tuberculosis H37Rv assessed as bacterial growth inhibition measured after 7 days by resazurin based assay; assay type: functional; settings: 168 h, time 7 day
[2] = system: Mycobacterium tuberculosis; assay: Antibacterial activity against H37Rv infected in mouse RAW264.7 cells assessed as reduction in bacterial load by measuring colony forming units per well at 2.5 uM measured for 5 days by plate counting method (Rvb ~ 1.25 log10CFU); assay type: functional; settings: time 5 day
[3] = Cytotoxicity against African green monkey Vero cells incubated for 72 hrs by NRU assay; assay type: toxicity, cell-based; settings: chlorocebus sabaeus
[4] = Solubility of compound at pH 1.2 at 1 mg incubated for 4 hrs by LC analysis; assay type: physicochemical
[5] = Cytotoxicity against human HepG2 cells incubated for 72 hrs by MTT assay; assay type: toxicity, cell-based
[6] = system: Mycobacterium tuberculosis; assay: Antibacterial activity against H37Rv infected in mouse RAW264.7 cells assessed as reduction in bacterial load by measuring colony forming units per well at 2.5 uM measured after 5 days by plate counting method (reference value: 4.19 +/- 0.41 log10CFU); assay type: functional; settings: time 5 day
[7] = Permeability of compound at 10 uM measured after 5 hrs by PAMPA assay; assay type: ADME; settings: read-out: permeability
[8] = Cytotoxicity against African green monkey Vero cells incubated for 72 hrs by MTT assay; assay type: toxicity, cell-based; settings: chlorocebus sabaeus
[9] = Solubility of compound at pH 7.4 at 1 mg incubated for 4 hrs by LC analysis; assay type: physicochemical
[10] = Chemical stability of compound at pH 9.1 assessed as compound remaining at 10 uM incubated for 24 hrs by HPLC-MS/MS analysis; assay type: physicochemical; settings: buffer, read-out: Stability
[11] = Cytotoxicity against human HepG2 cells incubated for 72 hrs by NRU assay; assay type: toxicity, cell-based
[12] = Chemical stability of compound at pH 1.2 assessed as compound remaining at 10 uM incubated for 24 hrs by HPLC-MS/MS analysis; assay type: physicochemical; settings: buffer, read-out: Stability
[13] = Metabolic stability in rat liver microsomes assessed as half life at 1 mg/ml measured for 30 mins in presence of […] by HPLC-MS/MS analysis; assay type: ADME, Microsome
[14] = Chemical stability of compound at pH 7.4 assessed as compound remaining at 10 uM incubated for 24 hrs by HPLC-MS/MS analysis; assay type: physicochemical; settings: buffer, read-out: Stability

`CCc1cc(OCC(=O)Nc2ccc(N3CCC(c4ccccc4)CC3)cc2)c2cc(Cl)ccc2n1` showed an MIC [1] of 0.04 µM (≈ 0.02 µg/mL).

For `CCc1cc(OCC(=O)Nc2ccc(N3CCC(c4ccc(OC(F)(F)F)cc4)CC3)cc2)c2cc(Cl)ccc2n1`, the MIC [1] was 0.07 µM (≈ 0.0409 µg/mL).

For `Cc1cc(OCC(=O)Nc2ccc(N3CCC(c4ccc(OC(F)(F)F)cc4)CC3)cc2)c2cc(Cl)ccc2n1`, the MIC [1] was 0.14 µM (≈ 0.0798 µg/mL).

`CCc1cc(OCC(=O)Nc2ccc(N3CCC(c4ccc(OC(F)(F)F)cc4)CC3)cc2)c2cc(OC)ccc2n1` showed an MIC [1] of 2.1 µM (≈ 1.22 µg/mL).

In the case of `COc1ccc2nc(C(F)(F)F)cc(OCC(=O)Nc3ccc(N4CCC(c5ccccc5)CC4)cc3)c2c1`, the MIC [1] is reported as 0.1 µM (≈ 0.0536 µg/mL).

`O=C(COc1cc(C(F)(F)F)nc2ccc(Br)cc12)Nc1ccc(N2CCC(c3ccccc3)CC2)cc1` gave an MIC [1] of 34.2 µM (≈ 20 µg/mL).

In the case of `Cc1cc(OCC(=O)Nc2ccc(N3CCC(c4ccccc4)CC3)cc2)c2cc(Cl)ccc2n1`, the Activity [2] is reported as 0.48 log10CFU, the CC50 at 72 h [3] is reported as over 10 µM and the solubility at 4 h [4] is reported as over 2060 µM. For the same compound, the CC50 at 72 h [5] was over 10 µM, the MIC [1] was 0.02 µM (≈ 0.00972 µg/mL) and the Activity [6] was 2.46 log10CFU. For the same compound, the Papp at 5 h, 10 µM [7] was 0.49 ×10⁻⁶ cm/s, the CC50 at 72 h [8] was over 10 µM and the solubility at 4 h [9] was 4030 µM (≈ 1960 µg/mL). The remaining at 24 h, 10 µM [10] was 99%, the CC50 at 72 h [11] was over 10 µM and the remaining at 24 h, 10 µM [12] was 90.6%. The half-life [13] was 177 min and the remaining at 24 h, 10 µM [14] was 100%.

In the case of `CCc1cc(OCC(=O)Nc2ccc(N3CCC(c4ccccc4)CC3)cc2)c2cc(OC)ccc2n1`, the MIC [1] is reported as 0.08 µM (≈ 0.0396 µg/mL).

Work on `O=C(COc1cc(C(F)(F)F)nc2ccc(Cl)cc12)Nc1ccc(N2CCC(c3ccccc3)CC2)cc1` yielded an MIC [1] of 74 µM (≈ 40 µg/mL).

`COc1ccc2nc(C)cc(OCC(=O)Nc3ccc(N4CCC(c5ccccc5)CC4)cc3)c2c1` showed a CC50 at 72 h [3] of over 10 µM, a solubility at 4 h [4] of 410 µM (≈ 197 µg/mL) and a CC50 at 72 h [5] of over 10 µM. The MIC [1] was 0.02 µM (≈ 0.00963 µg/mL), the Papp at 5 h, 10 µM [7] was 0.001 ×10⁻⁶ cm/s and the CC50 at 72 h [8] was over 10 µM. The solubility at 4 h [9] was 2220 µM (≈ 1070 µg/mL), the remaining at 24 h, 10 µM [10] was 22.6% and the CC50 at 72 h [11] was over 10 µM. The remaining at 24 h, 10 µM [12] was 52.4%, the half-life [13] was 7.1 min and the remaining at 24 h, 10 µM [14] was 96.3%.

For `CCc1cc(OCC(=O)Nc2ccc(N3CCC(c4ccc(OC(F)(F)F)cc4)CC3)cc2)c2cc(Br)ccc2n1`, the MIC [1] was 7.9 µM (≈ 4.97 µg/mL).

Compound `CCc1cc(OCC(=O)Nc2ccc(N3CCC(c4ccccc4)CC3)cc2)c2cc(Br)ccc2n1` has an MIC [1] of 0.07 µM (≈ 0.0381 µg/mL).

Compound `Cc1cc(OCC(=O)Nc2ccc(N3CCC(c4ccc(OC(F)(F)F)cc4)CC3)cc2)c2cc(Br)ccc2n1` has an MIC [1] of 0.06 µM (≈ 0.0369 µg/mL).

In the case of `CCc1nc2ccc(Cl)cn2c1C(=O)NCc1ccc(N2CCC(c3ccc(OC(F)(F)F)cc3)CC2)cc1` [TELACEBEC], the MIC [1] is reported as 0.009 µM (≈ 0.00501 µg/mL).

Work on `COc1ccc2nc(C)cc(OCC(=O)Nc3ccc(N4CCCCC4)cc3)c2c1` yielded an MIC [1] of 0.09 µM (≈ 0.0365 µg/mL).

In the case of `COc1ccc2nc(C)cc(OCC(=O)Nc3ccc(N4CCC(c5ccc(OC(F)(F)F)cc5)CC4)cc3)c2c1`, the CC50 at 72 h [3] is reported as over 10 µM, the solubility at 4 h [4] is reported as 20 µM (≈ 11.3 µg/mL) and the CC50 at 72 h [5] is reported as over 10 µM. For the same compound, the MIC [1] was 0.02 µM (≈ 0.0113 µg/mL), the Papp at 5 h, 10 µM [7] was 0.16 ×10⁻⁶ cm/s and the CC50 at 72 h [8] was over 10 µM. It also gave a solubility at 4 h [9] of 2190 µM (≈ 1240 µg/mL), a remaining at 24 h, 10 µM [10] of 96.8% and a CC50 at 72 h [11] of over 10 µM. It also gave a remaining at 24 h, 10 µM [12] of 100%, a half-life [13] of 21 min and a remaining at 24 h, 10 µM [14] of 85.3%.

`Cc1cc(OCC(=O)Nc2ccc(N3CCC(c4ccccc4)CC3)cc2)c2cc(Br)ccc2n1` gave a CC50 at 72 h [3] of over 10 µM, a solubility at 4 h [4] of over 1880 µM and a CC50 at 72 h [5] of over 10 µM. It also gave an MIC [1] of 0.02 µM (≈ 0.0106 µg/mL), a Papp at 5 h, 10 µM [7] of 0.35 ×10⁻⁶ cm/s and a CC50 at 72 h [8] of over 10 µM. The solubility at 4 h [9] was 2640 µM (≈ 1400 µg/mL), the remaining at 24 h, 10 µM [10] was 100% and the CC50 at 72 h [11] was over 10 µM. It also gave a remaining at 24 h, 10 µM [12] of 100%, a half-life [13] of 76.4 min and a remaining at 24 h, 10 µM [14] of 93.9%.

In the case of `NNC(=O)c1ccncc1` [ISONIAZID], the MIC [1] is reported as 2.3 µM (≈ 0.315 µg/mL).
